Results published in the NIST ThermoML archive (doi:10.1021/je900502s).
± gives the expanded uncertainty stated by the source.

What was measured:
[1] = for surface tension liquid-gas: Pendant drop shape; for mass density: 101.33 kPa, Liquid, Pycnometric method
[2] = 293.15 K; 101 kPa; Liquid mixture 1; pendant drop method

mass density ([1]; 293.15 K) [kg/m3]	SMILES	surface tension liquid-gas ([1]; 293.15 K) [mN/m]	other results
–	CCCCCCCC[N+](C)(CCCCCCCC)CCCCCCCC.O=S(=O)([N-]S(=O)(=O)C(F)(F)F)C(F)(F)F	22.77 ± 0.43	–
–	CCCCCCN(CCCCCC)C(N(C)C)=[N+](CCCCCC)CCCCCC.N#C[N-]C#N	21.35 ± 0.49	–
–	CCCCCCN(CCCCCC)C(N(C)C)=[N+](CCCCCC)CCCCCC.[Cl-]	28.95 ± 0.57	mass density ([1]; 298.15 K): 943 ± 50 kg/m3
–	CCCCCCCCn1cc[n+](C)c1.O=S(=O)([N-]S(=O)(=O)C(F)(F)F)C(F)(F)F + O	–	interfacial tension [2]: 22.81 ± 0.41 mN/m
–	CCCC[n+]1ccn(C)c1.O=S(=O)([N-]S(=O)(=O)C(F)(F)F)C(F)(F)F + O	–	interfacial tension [2]: 15.15 ± 0.55 mN/m
–	CCCCn1cc[n+](C)c1C.O=S(=O)([N-]S(=O)(=O)C(F)(F)F)C(F)(F)F + O	–	interfacial tension [2]: 17.04 ± 1.3 mN/m
1121 ± 7	OCCO [1,2-ethanediol]	–	–
1306 ± 7	COCCn1cc[n+](C)c1.F[B-](F)(F)F [1-(2-methoxyethyl)-3-methyl-imidazolium tetrafluoroborate]	35.31 ± 0.64	–
1066 ± 10	CCCCn1cc[n+](C)c1.N#CN=C=[N-] [1-butyl-3-methylimidazolium dicyanamide]	38.14 ± 0.68	–
1212 ± 5	CCCCn1cc[n+](C)c1.F[B-](F)(F)F [1-butyl-3-methylimidazolium tetrafluoroborate]	44.28 ± 0.79	mass density ([1]; 298.15 K): 1217 ± 12 kg/m3
1242 ± 4	CCOS(=O)(=O)[O-].CCn1cc[n+](C)c1 [1-ethyl-3-methylimidazolium ethyl sulfate]	46.13 ± 0.91	–
971 ± 6	CCCCCCCC[n+]1ccn(C)c1.[Cl-] [1-methyl-3-octylimidazolium chloride]	26.2 ± 0.57	–
1110 ± 5	CCCCCCCC[n+]1ccn(C)c1.F[B-](F)(F)F [1-methyl-3-octylimidazolium tetrafluoroborate]	33.22 ± 0.6	mass density ([1]; 298.15 K): 1115 ± 46 kg/m3
–	CCCCCCCC[N+](C)(CCCCCCCC)CCCCCCCC.N#C[N-]C#N [N,N,N-trioctyl-N-methylammonium dicyanamide]	28.8 ± 0.53	mass density ([1]; 298.15 K): 890 ± 3 kg/m3
–	CCCCCCCC[N+](C)(CCCCCCCC)CCCCCCCC.[Cl-] [N-methyl-N,N-dioctyl-1-octanaminium chloride] + O	–	interfacial tension [2]: 3.66 ± 0.36 mN/m
1327 ± 9	ClCCl [dichloromethane]	–	–
831 ± 3	CCCCCCCCO [octan-1-ol]	–	–
–	CCCCCCCCO [octan-1-ol] + O	–	interfacial tension [2]: 8.3 ± 0.5 mN/m
–	CCCCCCCCCCCCCC[P+](CCCCCC)(CCCCCC)CCCCCC.N#C[N-]C#N [tetradecyl(trihexyl)phosphonium dicyanamide]	30.99 ± 0.61	–
–	CCCCCCCCCCCCCC[P+](CCCCCC)(CCCCCC)CCCCCC.Cc1ccc(S(=O)(=O)[O-])cc1 [tetradecyl(trihexyl)phosphonium tosylate]	23.2 ± 0.53	mass density ([1]; 298.15 K): 1003 ± 22 kg/m3
–	CCCCCCCCCCCCCC[P+](CCCCCC)(CCCCCC)CCCCCC.[Cl-] [trihexyl(tetradecyl)phosphonium chloride] + O	–	interfacial tension [2]: 6.11 ± 0.17 mN/m
1013 ± 5	O [water]	–	–

SMILES	mass density ([1]; 293.15 K) [kg/m3]	surface tension liquid-gas ([1]; 293.15 K) [mN/m]	other results
CCCCCCCCn1cc[n+](C)c1.O=S(=O)([N-]S(=O)(=O)C(F)(F)F)C(F)(F)F	1340 ± 4	30.55 ± 0.56	–
CCCC[n+]1ccn(C)c1.O=S(=O)([N-]S(=O)(=O)C(F)(F)F)C(F)(F)F	1452 ± 13	–	surface tension liquid-gas ([1]; 298.15 K): 38.37 ± 0.69 mN/m
CCCCn1cc[n+](C)c1C.O=S(=O)([N-]S(=O)(=O)C(F)(F)F)C(F)(F)F	1425 ± 24	26.66 ± 0.49	–
CCCCCCCCCCn1cc[n+](C)c1.N#C[N-]C#N [1-decyl-3-methylimidazolium dicyanamide]	1003 ± 5	31.15 ± 0.57	–
CCCCCCCCCCn1cc[n+](C)c1.F[B-](F)(F)F [1-decyl-3-methylimidazolium tetrafluoroborate]	1076 ± 3	23.65 ± 0.48	–
Cn1cc[n+](CCO)c1.N#C[N-]C#N [3-(2-hydroxyethyl)-1-methyl-1H-imidazol-3-ium dicyanoazanide]	1179 ± 3	45.75 ± 0.81	–
CCCCCCCCn1cc[n+](C)c1.N#C[N-]C#N [3-methyl-1-octylimidazolium dicyanamide]	1013 ± 3	36.86 ± 0.66	–
CCCCCCCC[N+](C)(CCCCCCCC)CCCCCCCC.[Cl-] [N-methyl-N,N-dioctyl-1-octanaminium chloride]	891 ± 6	26.44 ± 0.49	mass density ([1]; 298.15 K): 896 ± 18 kg/m3
CCCCCCCCCCCCCC[P+](CCCCCC)(CCCCCC)CCCCCC.[Cl-] [trihexyl(tetradecyl)phosphonium chloride]	918 ± 6	30.7 ± 0.56	–
